Laboratory results from patent publication US20240390298A1, “CYCLOHEXYL BETA-HYDROXY ALKYL AMINES AND MEDICAL USES THEREOF” (ATROGI AB, priority 2021, published 2024).
Where a name gives a salt, the structure may show the parent alone.

Assays:
L6-myotubes [1] = assay: Glucose uptake in differentiated L6-myotubes (3H-2-deoxyglucose), compared to isoproterenol; format: cell-based; conditions: agonist 1×10^−5 M, 50 nM 3H-2-deoxyglucose
Summary of the method: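 Serum-starved differentiated L6 myotubes stimulated with agonist at 1×10^−5 M for 1 h 40 min, re-dosed in glucose-free medium for 20 min, then given 50 nM ^3H-2-deoxyglucose for 10 min. Uptake read by β-counting of NaOH lysates; activity expressed relative to isoproterenol.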

L6-myotubes [2] = assay: Measurement of intracellular cAMP levels in differentiated L6 cells (alpha screen cAMP kit), compared to isoproterenol; format: cell-based; conditions: agonist 1×10^−5 M, 15 min; for Emax at 10 µM: Rattus norvegicus, L6, 0.25 h, read-out: Biological example 2: intracellular cAMP levels, activity compared to that of isoproterenol
Summary of the method: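 L6 myoblasts were differentiated into myotubes over 7 days in 2% FBS, then serum-starved overnight. Agonist at 1×10^−5 M final was applied for 15 min in HBSS with 1% BSA, 5 mM HEPES and 1 mM IBMX, pH 7.4. After ethanol extraction and lysis, cAMP was quantified by AlphaScreen, with activity expressed relative to isoproterenol.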

| Compound | Biological example 1: glucose uptake, activity compared to that of isoproterenol (L6-myotubes [1]) | Emax at 10 µM (L6-myotubes [2]) | Biological example 2: intracellular cAMP levels, activity compared to that of isoproterenol (L6-myotubes [2]) |
| --- | --- | --- | --- |
| CC(C)(C[C@H]1CC[C@H](NS(=O)(=O)C2CC2)CC1)NC[C@H](O)c1cccc(F)c1 [Example 161, N-((1R,4r)-4-(2-(((R)-2-(3-Fluorophenyl)-2-hydroxyethyl)amino)-2-methypropyl)cyclohexyl)cyclopropanesulfonamide hydrochloride] | + + | < 25% |  |
| CC(C)(C[C@H]1CC[C@@H](NC(=O)OC(C)(C)C)CC1)NC[C@H](O)c1cccc(F)c1 [Example 162, tert-Butyl ((1S,4s)-4-(2-(((R)-2-(3-fluorophenyl)-2-hydroxyethyl)amino)-2-methylpropyl)cyclohexyl)carbamate] | + + + | < 25% |  |
| CC(C)(C[C@H]1CC[C@@H](N)CC1)NC[C@H](O)c1cccc(F)c1 [Example 163, (R)-2-((1-((1s,4S)-4-Aminocyclohexyl)-2-methylpropan-2-yl)amino)-1-(3-fluorophenyl)ethan-1-ol] | + + + | < 25% |  |
| CC(=O)N[C@H]1CC[C@@H](CC(C)(C)NC[C@H](O)c2cccc(F)c2)CC1 [Example 164, N-((1S,4s)-4-(2-(((R)-2-(3-Fluorophenyl)-2-hydroxyethyl)amino)-2-methylpropyl)cyclohexyl)acetamide] | + + + | < 25% |  |
| CC(C)(C[C@H]1CC[C@@H](NC(=O)C(C)(C)C)CC1)NC[C@H](O)c1cccc(F)c1 [Example 165, N-((1S,4s)-4-(2-(((R)-2-(3-Fluorophenyl)-2-hydroxyethyl)amino)-2-methylpropyl)cyclohexyl)pivalamide hydrochloride] | + + + | < 25% |  |
| CC(C)(C[C@H]1CC[C@@H](NC(=O)C2CC2)CC1)NC[C@H](O)c1cccc(F)c1 [Example 166, N-((1S,4s)-4-(2-(((R)-2-(3-Fluorophenyl)-2-hydroxyethyl)amino)-2-methylpropyl)cyclohexyl)cyclopropanecarboxamide hydrochloride] | + + + | < 25% |  |
| CC(C)(C[C@H]1CC[C@@H](NC(=O)C2CCC2)CC1)NC[C@H](O)c1cccc(F)c1 [Example 167, N-((1S,4s)-4-(2-(((R)-2-(3-Fluorophenyl)-2-hydroxyethyl)amino)-2-methylpropyl)cyclohexyl)cyclobutanecarboxamide hydrochloride] | + + | < 25% |  |
| CC(C)(C[C@H]1CC[C@@H](NC(=O)C(F)(F)F)CC1)NC[C@H](O)c1cccc(F)c1 [Example 168, 2,2,2-Trifluoro-N-((1S,4s)-4-(2-(((R)-2-(3-Fluorophenyl)-2-hydroxyethyl)-amino)-2-methylpropyl)cyclohexyl)acetamide hydrochloride] | + + + | < 25% |  |
| CN(C)C(=O)N[C@H]1CC[C@@H](CC(C)(C)NC[C@H](O)c2cccc(F)c2)CC1 [Example 169, 3-((1S,4s)-4-(2-(((R)-2-(3-Fluorophenyl)-2-hydroxyethyl)amino)-2-methylpropyl)cyclohexyl)-1,1-dimethylurea hydrochloride] | + + + | 25 to 50% |  |
| CC(C)(C[C@H]1CC[C@@H](NS(C)(=O)=O)CC1)NC[C@H](O)c1cccc(F)c1 [Example 170, N-((1S,4s)-4-(2-(((R)-2-(3-Fluorophenyl)-2-hydroxyethyl)amino)-2-methylpropyl)cyclohexyl)methanesulfonamide hydrochloride] | + + + | < 25% |  |
| CCCS(=O)(=O)N[C@H]1CC[C@@H](CC(C)(C)NC[C@H](O)c2cccc(F)c2)CC1 [Example 171, N-((1S,4s)-4-(2-(((R)-2-(3-Fluorophenyl)-2-hydroxyethyl)amino)-2-methylpropyl)cyclohexyl)propane-1-sulfonamide hydrochloride] | + + + | < 25% |  |
| CC(C)(C[C@H]1CC[C@@H](NS(=O)(=O)C(F)(F)F)CC1)NC[C@H](O)c1cccc(F)c1 [Example 172, 1,1,1-Trifluoro-N-((1S,4s)-4-(2-(((R)-2-(3-fluorophenyl)-2-hydroxyethyl)-amino)-2-methylpropyl)cyclohexyl)methanesulfonamide hydrochloride] | + + | < 25% |  |
| CC(C)(C[C@H]1CC[C@@H](NC(=O)OC(C)(C)C)CC1)NC[C@H](O)c1cncc(F)c1 [Example 174, tert-Butyl ((1S,4s)-4-(2-(((R)-2-(5-fluoropyridin-3-yl)-2-hydroxyethyl)-amino)-2-methylpropyl)cyclohexyl)carbamate] | + + + | < 25% |  |
| CC(C)(C[C@H]1CC[C@@H](N)CC1)NC[C@H](O)c1cncc(F)c1 [Example 175, (R)-2-((1-((1s,4S)-4-Aminocyclohexyl)-2-methylpropan-2-yl)amino)-1-(5-fluoropyridin-3-yl)ethan-1-ol] | + + | < 25% |  |
| CC(=O)N[C@H]1CC[C@@H](CC(C)(C)NC[C@H](O)c2cncc(F)c2)CC1 [Example 176, N-((1S,4s)-4-(2-(((R)-2-(5-Fluoropyridin-3-yl)-2-hydroxyethyl)amino)-2-methylpropyl)cyclohexyl)acetamide] | + + + | < 25% |  |
| CC(C)(C[C@H]1CC[C@@H](NS(C)(=O)=O)CC1)NC[C@H](O)c1cncc(F)c1 [Example 177, N-((1S,4s)-4-(2-(((R)-2-(5-Fluoropyridin-3-yl)-2-hydroxyethyl)amino)-2-methylpropyl)cyclohexyl)methanesulfonamide] | + + + | < 25% |  |
| CC(=O)N(C)[C@H]1CC[C@H](CC(C)(C)NC[C@H](O)c2cccc(F)c2)CC1.Cl [Example 178, N-((1R,4r)-4-(2-(((R)-2-(3-Fluorophenyl)-2-hydroxyethyl)amino)-2-methylpropyl)cyclohexyl)-N-methylacetamide hydrochloride] | + + + | < 25% |  |
| CN([C@H]1CC[C@H](CC(C)(C)NC[C@H](O)c2cccc(F)c2)CC1)S(C)(=O)=O.Cl [Example 179, N-((1R,4r)-4-(2-(((R)-2-(3-Fluorophenyl)-2-hydroxyethyl)amino)-2-methylpropyl)cyclohexyl)-N-methylmethanesulfonamide hydrochloride] | + + | < 25% |  |
| CC(=O)N(C)[C@H]1CC[C@@H](CC(C)(C)NC[C@H](O)c2cccc(F)c2)CC1.Cl [Example 180, N-((1S,4s)-4-(2-(((R)-2-(3-Fluorophenyl)-2-hydroxyethyl)amino)-2-methylpropyl)cyclohexyl)-N-methylacetamide hydrochloride] | + + | < 25% |  |
| CN([C@H]1CC[C@@H](CC(C)(C)NC[C@H](O)c2cccc(F)c2)CC1)S(C)(=O)=O.Cl [Example 181, N-((1S,4s)-4-(2-((®-2-(3-Fluorophenyl)-2-hydroxyethyl)amino)-2-methyl-propyl)cyclohexyl)-N-methylmethanesulfonamide hydrochloride] | + + | < 25% |  |
| CC(=O)N(C)[C@H]1CC[C@H](CC(C)(C)NC[C@H](O)c2cncc(F)c2)CC1.Cl [Example 182, N-((1R,4r)-4-(2-(((R)-2-(5-Fluoropyridin-3-yl)-2-hydroxyethyl)amino)-2-methylpropyl)cyclohexyl)-N-methylacetamide] | + + + | 25 to 50% |  |
| CN([C@H]1CC[C@H](CC(C)(C)NC[C@H](O)c2cncc(F)c2)CC1)S(C)(=O)=O.Cl [Example 183, N-((1R,4r)-4-(2-(((R)-2-(5-Fluoropyridin-3-yl)-2-hydroxyethyl)amino)-2-methylpropyl)cyclohexyl)-N-methylmethanesulfonamide] | + + + | < 25% |  |
| CC(=O)N(C)[C@H]1CC[C@@H](CC(C)(C)NC[C@H](O)c2cncc(F)c2)CC1.Cl [Example 184, N-((1S,4s)-4-(2-(((R)-2-(5-Fluoropyridin-3-yl)-2-hydroxyethyl)amino)-2-methylpropyl)cyclohexyl)-N-methylacetamide] | + + + | < 25% |  |
| CN([C@H]1CC[C@@H](CC(C)(C)NC[C@H](O)c2cncc(F)c2)CC1)S(C)(=O)=O.Cl [Example 185, N-((1S,4s)-4-(2-(((R)-2-(5-Fluoropyridin-3-yl)-2-hydroxyethyl)amino)-2-methylpropyl)cyclohexyl)-N-methylmethanesulfonamide] | + + + | < 25% |  |
| CN(C)S(=O)(=O)[C@H]1CC[C@H](CC(C)(C)NC[C@H](O)c2cccc(F)c2)CC1.Cl [Example 186, (1R,4r)-4-(2-(((R)-2-(3-Fluorophenyl)-2-hydroxyethyl)amino)-2-methyl-propyl)-N,N-dimethylcyclohexane-1-sulfonamide hydrochloride] | + + + |  | + + |
